Values after ≈ are worked out from the molar mass of the structure shown. Active and inactive are the calls of the source. The calls are words filed in the database; no cut-off is given here.
Legend:
Enterococcus faecalis [1] = assay: Antibacterial activity was determined against gram positive bacteria - Enterococcus faecalis (ATCC 29212).; assay type: functional
Enterococcus faecalis [2] = assay: Minimum inhibitory concentration against Enterococcus faecalis (ATCC 29212) was determined using broth dilution method.; assay type: functional
Listeria monocytogenes [3] = assay: Antibacterial activity was determined against gram positive bacteria - Listeria monocytogenes (CIP 82110T); assay type: functional
Staphylococcus aureus [4] = assay: Minimum inhibitory concentration against Staphylococcus aureus(ATCC 9144) was determined using broth dilution method.; assay type: functional
Streptococcus pyogenes [5] = assay: Minimum inhibitory concentration against Streptococcus pyogenes(ATCC 19165) was determined using broth dilution method.; assay type: functional
Staphylococcus aureus [6] = assay: Antibacterial activity was determined against gram positive bacteria - Staphylococcus aureus(ATCC 9144); assay type: functional
Streptococcus pyogenes [7] = assay: Antibacterial activity was determined against gram positive bacteria - Streptococcus pyogenes(ATCC 19165); assay type: functional
Listeria monocytogenes [8] = assay: Minimum inhibitory concentration against Listeria monocytogenes (CIP 82110T) was determined using broth dilution method.; assay type: functional
Enterococcus faecalis [9] = assay: Antibacterial activity was determined against gram positive bacteria - Enterococcus faecalis (ATCC 29212); Inactive; assay type: functional, organism-based
Listeria monocytogenes [10] = assay: Antibacterial activity was determined against gram positive bacteria - Listeria monocytogenes (CIP 82110T); Inactive; assay type: functional, organism-based
Staphylococcus aureus [11] = assay: Antibacterial activity was determined against gram positive bacteria - Staphylococcus aureus(ATCC 9144); Inactive; assay type: functional, organism-based
Streptococcus pyogenes [12] = assay: Antibacterial activity was determined against gram positive bacteria - Streptococcus pyogenes(ATCC 19165); Inactive; assay type: functional, organism-based

`COC(=O)c1cc(OC)c(OC)cc1/N=c1\ssnc1Cl` was tested. Which Zone diameter (Enterococcus faecalis [1]) did it give?
The Zone diameter was 14 mm.

What about the MIC (Enterococcus faecalis [2]) of the same molecule?
Its MIC is 32 µg/mL (≈ 92.3 µM).

What about the Zone diameter (Listeria monocytogenes [3]) of the same molecule?
The Zone diameter was 17 mm.

What about the MIC (Staphylococcus aureus [4]) of the same molecule?
Its MIC is 32 µg/mL (≈ 92.3 µM).

And the MIC (Streptococcus pyogenes [5])?
The MIC was 32 µg/mL (≈ 92.3 µM).

What about the Zone diameter (Staphylococcus aureus [6]) of the same molecule?
The Zone diameter was 17 mm.

What about the Zone diameter (Streptococcus pyogenes [7]) of the same molecule?
The Zone diameter was 14 mm.

And the MIC (Listeria monocytogenes [8])?
Its MIC is 32 µg/mL (≈ 92.3 µM).

With `COc1ccc(NC(=S)C#N)cc1OC` as the molecule, how does the Zone diameter (Enterococcus faecalis [9]) read?
Its Zone diameter is “inactive”.

What about the Zone diameter (Listeria monocytogenes [10]) of the same molecule?
Its Zone diameter is “inactive”.

What about the Zone diameter (Staphylococcus aureus [11]) of the same molecule?
Its Zone diameter is “inactive”.

And the Zone diameter (Streptococcus pyogenes [12])?
Its Zone diameter is “inactive”.

For `COC(=O)c1ccccc1/N=C(/S)C#N`, which Zone diameter (Enterococcus faecalis [9]) is on record?
Its Zone diameter is “inactive”.

What about the Zone diameter (Listeria monocytogenes [10]) of the same molecule?
Its Zone diameter is “inactive”.

And the Zone diameter (Staphylococcus aureus [11])?
Its Zone diameter is “inactive”.

And the Zone diameter (Streptococcus pyogenes [12])?
The Zone diameter was “inactive”.

For `N#CC(=S)Nc1ccccc1`, which Zone diameter (Enterococcus faecalis [9]) is on record?
Its Zone diameter is “inactive”.

What about the Zone diameter (Listeria monocytogenes [10]) of the same molecule?
Its Zone diameter is “inactive”.

And the Zone diameter (Staphylococcus aureus [11])?
The Zone diameter was “inactive”.

What about the Zone diameter (Streptococcus pyogenes [12]) of the same molecule?
The Zone diameter was “inactive”.

For `COc1cc(C#N)c(/N=c2\ssnc2Cl)cc1OC`, which Zone diameter (Enterococcus faecalis [1]) is on record?
The Zone diameter was 10 mm.

What about the MIC (Enterococcus faecalis [2]) of the same molecule?
Its MIC is 32 µg/mL (≈ 102 µM).

What about the Zone diameter (Listeria monocytogenes [3]) of the same molecule?
Its Zone diameter is 10 mm.

What about the MIC (Staphylococcus aureus [4]) of the same molecule?
Its MIC is 32 µg/mL (≈ 102 µM).

And the MIC (Streptococcus pyogenes [5])?
The MIC was 32 µg/mL (≈ 102 µM).

And the Zone diameter (Staphylococcus aureus [6])?
The Zone diameter was 10 mm.

What about the Zone diameter (Streptococcus pyogenes [7]) of the same molecule?
The Zone diameter was 13 mm.

What about the MIC (Listeria monocytogenes [8]) of the same molecule?
The MIC was 32 µg/mL (≈ 102 µM).

How did the Zone diameter (Enterococcus faecalis [9]) turn out when `COC(=O)c1cc(OC)c(OC)cc1/N=C(/S)C#N` was run?
Its Zone diameter is “inactive”.

And the Zone diameter (Listeria monocytogenes [10])?
Its Zone diameter is “inactive”.

What about the Zone diameter (Staphylococcus aureus [11]) of the same molecule?
The Zone diameter was “inactive”.

What about the Zone diameter (Streptococcus pyogenes [12]) of the same molecule?
Its Zone diameter is “inactive”.

With `N#CC(=S)Nc1ccc2c(c1)OCCO2` as the molecule, how does the Zone diameter (Enterococcus faecalis [9]) read?
Its Zone diameter is “inactive”.

What about the Zone diameter (Listeria monocytogenes [10]) of the same molecule?
Its Zone diameter is “inactive”.

What about the Zone diameter (Staphylococcus aureus [11]) of the same molecule?
The Zone diameter was “inactive”.

And the Zone diameter (Streptococcus pyogenes [12])?
The Zone diameter was “inactive”.

How did the Zone diameter (Enterococcus faecalis [1]) turn out when `N#Cc1ccccc1/N=c1\ssnc1Cl` was run?
The Zone diameter was 11 mm.

And the MIC (Enterococcus faecalis [2])?
Its MIC is 32 µg/mL (≈ 126 µM).

And the Zone diameter (Listeria monocytogenes [3])?
Its Zone diameter is 11 mm.

What about the MIC (Staphylococcus aureus [4]) of the same molecule?
The MIC was 32 µg/mL (≈ 126 µM).

And the MIC (Streptococcus pyogenes [5])?
Its MIC is 32 µg/mL (≈ 126 µM).

What about the Zone diameter (Staphylococcus aureus [6]) of the same molecule?
Its Zone diameter is 11 mm.

What about the Zone diameter (Streptococcus pyogenes [7]) of the same molecule?
Its Zone diameter is 15 mm.

What about the MIC (Listeria monocytogenes [8]) of the same molecule?
Its MIC is 32 µg/mL (≈ 126 µM).

For `COc1ccc(/N=c2\ssnc2Cl)cc1OC`, which Zone diameter (Enterococcus faecalis [1]) is on record?
The Zone diameter was 13 mm.

What about the MIC (Enterococcus faecalis [2]) of the same molecule?
The MIC was 32 µg/mL (≈ 111 µM).

What about the Zone diameter (Listeria monocytogenes [3]) of the same molecule?
Its Zone diameter is 12 mm.

What about the MIC (Staphylococcus aureus [4]) of the same molecule?
The MIC was 32 µg/mL (≈ 111 µM).

And the MIC (Streptococcus pyogenes [5])?
Its MIC is 32 µg/mL (≈ 111 µM).

And the Zone diameter (Staphylococcus aureus [6])?
The Zone diameter was 13 mm.

What about the Zone diameter (Streptococcus pyogenes [7]) of the same molecule?
Its Zone diameter is 16 mm.

And the MIC (Listeria monocytogenes [8])?
Its MIC is 32 µg/mL (≈ 111 µM).

How did the Zone diameter (Enterococcus faecalis [9]) turn out when `COc1cc(C#N)c(/N=C(/S)C#N)cc1OC` was run?
Its Zone diameter is “inactive”.

What about the Zone diameter (Listeria monocytogenes [10]) of the same molecule?
The Zone diameter was “inactive”.

What about the Zone diameter (Staphylococcus aureus [11]) of the same molecule?
The Zone diameter was “inactive”.

And the Zone diameter (Streptococcus pyogenes [12])?
The Zone diameter was “inactive”.

What does the source list for `Clc1nss/c1=N\c1ccc2c(c1)OCCO2`?
Zone diameter (Enterococcus faecalis [1]): 10 mm; MIC (Enterococcus faecalis [2]): 32 µg/mL (≈ 112 µM); Zone diameter (Listeria monocytogenes [3]): 10 mm; MIC (Staphylococcus aureus [4]): 32 µg/mL (≈ 112 µM); MIC (Streptococcus pyogenes [5]): 32 µg/mL (≈ 112 µM); Zone diameter (Staphylococcus aureus [6]): 12 mm; Zone diameter (Streptococcus pyogenes [7]): 11 mm; MIC (Listeria monocytogenes [8]): 32 µg/mL (≈ 112 µM)

What does the source list for `COc1cc(NC(=S)C#N)cc(OC)c1OC`?
Zone diameter (Enterococcus faecalis [9]): inactive; Zone diameter (Listeria monocytogenes [10]): inactive; Zone diameter (Staphylococcus aureus [11]): inactive; Zone diameter (Streptococcus pyogenes [12]): inactive

For `COc1ccc(NC(=S)C#N)cc1`, which Zone diameter (Enterococcus faecalis [9]) is on record?
The Zone diameter was “inactive”.

And the Zone diameter (Listeria monocytogenes [10])?
The Zone diameter was “inactive”.

What about the Zone diameter (Staphylococcus aureus [11]) of the same molecule?
Its Zone diameter is “inactive”.

What about the Zone diameter (Streptococcus pyogenes [12]) of the same molecule?
The Zone diameter was “inactive”.

For `COc1ccc(/N=c2\ssnc2Cl)cc1`, which Zone diameter (Enterococcus faecalis [1]) is on record?
Its Zone diameter is 14 mm.

What about the MIC (Enterococcus faecalis [2]) of the same molecule?
Its MIC is 32 µg/mL (≈ 124 µM).

What about the Zone diameter (Listeria monocytogenes [3]) of the same molecule?
Its Zone diameter is 15 mm.

And the MIC (Staphylococcus aureus [4])?
The MIC was 32 µg/mL (≈ 124 µM).

What about the MIC (Streptococcus pyogenes [5]) of the same molecule?
Its MIC is 32 µg/mL (≈ 124 µM).

And the Zone diameter (Staphylococcus aureus [6])?
The Zone diameter was 17 mm.

What about the Zone diameter (Streptococcus pyogenes [7]) of the same molecule?
Its Zone diameter is 15 mm.

And the MIC (Listeria monocytogenes [8])?
The MIC was 32 µg/mL (≈ 124 µM).

With `N#CC(=S)Nc1ccccc1C#N` as the molecule, how does the Zone diameter (Enterococcus faecalis [9]) read?
Its Zone diameter is “inactive”.

What about the Zone diameter (Listeria monocytogenes [10]) of the same molecule?
The Zone diameter was “inactive”.

What about the Zone diameter (Staphylococcus aureus [11]) of the same molecule?
Its Zone diameter is “inactive”.

What about the Zone diameter (Streptococcus pyogenes [12]) of the same molecule?
Its Zone diameter is “inactive”.

`COc1cc(/N=c2\ssnc2Cl)cc(OC)c1OC` was tested. Which Zone diameter (Enterococcus faecalis [1]) did it give?
The Zone diameter was 10 mm.

What about the MIC (Enterococcus faecalis [2]) of the same molecule?
Its MIC is 32 µg/mL (≈ 100 µM).

What about the Zone diameter (Listeria monocytogenes [3]) of the same molecule?
The Zone diameter was 17 mm.

And the MIC (Staphylococcus aureus [4])?
The MIC was 32 µg/mL (≈ 100 µM).

What about the MIC (Streptococcus pyogenes [5]) of the same molecule?
Its MIC is 32 µg/mL (≈ 100 µM).

And the Zone diameter (Staphylococcus aureus [6])?
Its Zone diameter is 13 mm.

And the Zone diameter (Streptococcus pyogenes [7])?
Its Zone diameter is 16 mm.

What about the MIC (Listeria monocytogenes [8]) of the same molecule?
Its MIC is 32 µg/mL (≈ 100 µM).

What does the source list for `COc1ccccc1/N=C(/S)C#N`?
Zone diameter (Enterococcus faecalis [9]): inactive; Zone diameter (Listeria monocytogenes [10]): inactive; Zone diameter (Staphylococcus aureus [11]): inactive; Zone diameter (Streptococcus pyogenes [12]): inactive

How did the Zone diameter (Enterococcus faecalis [1]) turn out when `COC(=O)c1ccccc1/N=c1\ssnc1Cl` was run?
Its Zone diameter is 16 mm.

What about the MIC (Enterococcus faecalis [2]) of the same molecule?
Its MIC is 32 µg/mL (≈ 112 µM).

What about the Zone diameter (Listeria monocytogenes [3]) of the same molecule?
Its Zone diameter is 17 mm.

What about the MIC (Staphylococcus aureus [4]) of the same molecule?
Its MIC is 32 µg/mL (≈ 112 µM).

And the MIC (Streptococcus pyogenes [5])?
The MIC was 32 µg/mL (≈ 112 µM).

What about the Zone diameter (Staphylococcus aureus [6]) of the same molecule?
The Zone diameter was 18 mm.

And the Zone diameter (Streptococcus pyogenes [7])?
The Zone diameter was 18 mm.

And the MIC (Listeria monocytogenes [8])?
Its MIC is 32 µg/mL (≈ 112 µM).

Which Zone diameter (Enterococcus faecalis [1]) does the source give for `Clc1nss/c1=N\c1ccccc1` here?
Its Zone diameter is 19 mm.

And the MIC (Enterococcus faecalis [2])?
Its MIC is 16 µg/mL (≈ 70 µM).

And the Zone diameter (Listeria monocytogenes [3])?
Its Zone diameter is 27 mm.

What about the MIC (Staphylococcus aureus [4]) of the same molecule?
The MIC was 16 µg/mL (≈ 70 µM).

What about the MIC (Streptococcus pyogenes [5]) of the same molecule?
The MIC was 32 µg/mL (≈ 140 µM).

What about the Zone diameter (Staphylococcus aureus [6]) of the same molecule?
Its Zone diameter is 29 mm.

What about the Zone diameter (Streptococcus pyogenes [7]) of the same molecule?
Its Zone diameter is 26 mm.

And the MIC (Listeria monocytogenes [8])?
The MIC was 16 µg/mL (≈ 70 µM).

`COc1ccccc1/N=c1\ssnc1Cl` was tested. Which Zone diameter (Enterococcus faecalis [1]) did it give?
The Zone diameter was 17 mm.

What about the MIC (Enterococcus faecalis [2]) of the same molecule?
The MIC was 16 µg/mL (≈ 61.8 µM).

What about the Zone diameter (Listeria monocytogenes [3]) of the same molecule?
Its Zone diameter is 21 mm.

What about the MIC (Staphylococcus aureus [4]) of the same molecule?
The MIC was 32 µg/mL (≈ 124 µM).

What about the MIC (Streptococcus pyogenes [5]) of the same molecule?
Its MIC is 32 µg/mL (≈ 124 µM).

And the Zone diameter (Staphylococcus aureus [6])?
Its Zone diameter is 20 mm.

What about the Zone diameter (Streptococcus pyogenes [7]) of the same molecule?
The Zone diameter was 22 mm.

What about the MIC (Listeria monocytogenes [8]) of the same molecule?
The MIC was 16 µg/mL (≈ 61.8 µM).
